Reference: patent US20150023953A1, “METHOD OF TREATING CANCER” (priority 2012, published 2015)

Tests used:
[1] = tested on: HER2+ MBC patients with disease progression following trastuzumab; conditions: Trial II
Description: Fifty five single nucleotide polymorphisms (SNPs) with functional consequence in 24 candidate genes were evaluated. The assay platform used to genotype these SNPs was the Illumina Human 1M-Duo BeadChip.
Statistical analysis of genetic associations were evaluated using an additive test. For any significant marker identified from the additive test, specific contrasts of interest between different genotypes will be explored to determine risk genotype(s). Cox proportional hazards model with Firth method. Any covariate significant at p≦0.05 in the multivariate Cox model will be included.
Testing for associations of SNPs with progression free survival (PFS) and overall survival (OS) during lapatinib treatment was performed using Cox proportional hazards methods, with covariate adjustment.
Associations were evaluated using an additive genetic test, using a multivariate Cox proportional hazards model adjusting for significant clinical covariates and race/ethnicity difference. […] The primary endpoints was Progression Free Survival (PFS), where the secondary endpoint was Overall Survival (OS). […] Variants were assigned to tiers for analysis, with different association significance thresholds and these were specified prior to analysis to adjust for number of SNP tests, but not for number of endpoints and groups, as follows: • Candidate genes:

[2] = target: CYP3A4 (Homo sapiens, UniProt P08684); conditions: cited from earlier work
[3] = tested on: HER2+ MBC patients; test: Meta-analysis and GWAS across Trial I and Trial II study-treatment arms; type: in vivo, human; conditions: across the trials or study arms
Description: (GWAS, 1M Genome-Wide SNPs (Illumina human 1M duo)). […] Examined genes were divided into three tiers as follows:
• GWAS SNPs: Bonferroni threshold for significance p=0.05/1M=5×10-8

[4] = target: T1, ABCG2 (BCRP) (Homo sapiens, UniProt Q9UNQ0); conditions: cited from earlier work
T1 sequence (Q9UNQ0 1-655): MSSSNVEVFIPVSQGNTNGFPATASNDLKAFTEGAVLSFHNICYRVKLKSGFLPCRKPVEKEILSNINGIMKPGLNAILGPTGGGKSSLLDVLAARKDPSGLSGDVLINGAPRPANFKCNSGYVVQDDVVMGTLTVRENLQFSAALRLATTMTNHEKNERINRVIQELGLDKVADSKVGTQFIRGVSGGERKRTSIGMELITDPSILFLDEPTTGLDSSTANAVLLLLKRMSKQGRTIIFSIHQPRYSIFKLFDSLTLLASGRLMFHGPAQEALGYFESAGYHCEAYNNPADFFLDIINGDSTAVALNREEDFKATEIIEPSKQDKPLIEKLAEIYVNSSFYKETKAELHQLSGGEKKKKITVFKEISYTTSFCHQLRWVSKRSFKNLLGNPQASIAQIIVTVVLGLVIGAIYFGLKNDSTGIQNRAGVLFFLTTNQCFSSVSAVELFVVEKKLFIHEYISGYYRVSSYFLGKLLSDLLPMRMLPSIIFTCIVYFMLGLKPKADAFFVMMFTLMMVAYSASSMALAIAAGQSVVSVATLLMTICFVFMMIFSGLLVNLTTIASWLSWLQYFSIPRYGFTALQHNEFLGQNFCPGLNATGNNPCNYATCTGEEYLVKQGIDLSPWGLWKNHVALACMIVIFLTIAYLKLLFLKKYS

[5] = target: ABCB1 (P-GP) (Homo sapiens, UniProt P08183); conditions: cited from earlier work
Sequence of ABCB1 (P-GP) (P08183 whole entry): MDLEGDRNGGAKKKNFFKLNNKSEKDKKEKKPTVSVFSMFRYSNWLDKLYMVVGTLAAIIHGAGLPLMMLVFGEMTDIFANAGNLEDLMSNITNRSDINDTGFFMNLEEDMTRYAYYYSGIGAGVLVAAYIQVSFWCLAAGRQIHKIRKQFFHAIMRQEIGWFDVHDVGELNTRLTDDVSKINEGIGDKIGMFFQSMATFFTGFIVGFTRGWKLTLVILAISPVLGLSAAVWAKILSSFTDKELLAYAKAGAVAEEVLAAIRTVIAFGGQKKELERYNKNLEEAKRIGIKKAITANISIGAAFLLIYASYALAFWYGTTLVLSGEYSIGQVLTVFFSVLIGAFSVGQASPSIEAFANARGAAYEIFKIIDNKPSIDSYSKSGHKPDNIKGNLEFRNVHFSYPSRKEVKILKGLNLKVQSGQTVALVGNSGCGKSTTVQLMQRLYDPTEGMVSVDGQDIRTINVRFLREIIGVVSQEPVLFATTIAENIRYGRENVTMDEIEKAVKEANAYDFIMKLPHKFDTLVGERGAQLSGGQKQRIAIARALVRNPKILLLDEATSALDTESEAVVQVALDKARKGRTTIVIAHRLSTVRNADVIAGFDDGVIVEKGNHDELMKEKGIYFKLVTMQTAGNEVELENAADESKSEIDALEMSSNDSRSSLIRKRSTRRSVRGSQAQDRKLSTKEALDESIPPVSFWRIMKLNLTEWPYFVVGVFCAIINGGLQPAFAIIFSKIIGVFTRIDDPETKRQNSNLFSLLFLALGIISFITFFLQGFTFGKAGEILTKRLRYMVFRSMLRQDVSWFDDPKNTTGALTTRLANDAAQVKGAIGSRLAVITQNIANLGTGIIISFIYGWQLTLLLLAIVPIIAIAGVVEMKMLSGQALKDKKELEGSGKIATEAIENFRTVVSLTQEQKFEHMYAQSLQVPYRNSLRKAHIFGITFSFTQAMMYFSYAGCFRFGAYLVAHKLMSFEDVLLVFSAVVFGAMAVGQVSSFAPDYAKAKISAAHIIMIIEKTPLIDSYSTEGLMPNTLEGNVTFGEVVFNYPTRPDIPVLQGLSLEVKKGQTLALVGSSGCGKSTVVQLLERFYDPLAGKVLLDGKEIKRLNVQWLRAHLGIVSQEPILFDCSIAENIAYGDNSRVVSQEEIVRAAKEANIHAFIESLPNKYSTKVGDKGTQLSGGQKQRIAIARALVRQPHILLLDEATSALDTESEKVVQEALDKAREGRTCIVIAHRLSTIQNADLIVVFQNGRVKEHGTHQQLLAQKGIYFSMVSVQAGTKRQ

[6] = tested on: HER2+ MBC patients with recurrent brain metastases; test: Clinical Trial I: pharmacogenetic association of germline SNPs with PFS/OS during lapatinib monotherapy; type: in vivo, human
Description: Candidate genes for this experiment are listed below.
Cox proportional hazards model with Firth method.
(GWAS, 1M Genome-Wide SNPs (Illumina human 1M duo)). […] Examined genes were divided into three tiers as follows: […]

Sequence of CYP3A4 (P08684 whole entry): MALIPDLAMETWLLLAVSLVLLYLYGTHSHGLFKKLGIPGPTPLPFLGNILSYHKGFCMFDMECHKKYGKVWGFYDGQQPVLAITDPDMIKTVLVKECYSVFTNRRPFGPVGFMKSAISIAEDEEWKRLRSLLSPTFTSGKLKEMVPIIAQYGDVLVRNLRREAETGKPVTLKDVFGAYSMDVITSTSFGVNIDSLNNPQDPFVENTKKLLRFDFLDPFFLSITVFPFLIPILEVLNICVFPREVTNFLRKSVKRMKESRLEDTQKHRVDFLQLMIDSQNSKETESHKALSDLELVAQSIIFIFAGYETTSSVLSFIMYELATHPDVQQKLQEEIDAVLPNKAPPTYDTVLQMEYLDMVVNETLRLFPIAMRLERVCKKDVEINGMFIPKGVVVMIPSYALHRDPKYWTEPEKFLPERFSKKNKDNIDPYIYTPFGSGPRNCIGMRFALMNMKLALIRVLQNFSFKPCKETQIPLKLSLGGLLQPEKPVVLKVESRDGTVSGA

CS(=O)(=O)CCNCc1ccc(-c2ccc3ncnc(Nc4ccc(OCc5cccc(F)c5)c(Cl)c4)c3c2)o1 [lapatinib, N-(3-chloro-4-{[(3-fluorophenyl)methyl]oxy}phenyl)-6-[5-({[2-(methylsulfonyl)ethyl]amino}methyl)-2-furanyl]-4-quinazolinamine]
association of VEGFA rs3025039 936C>T with OS [1]: not seen
association of SNPs with progression-free survival (PFS) ([1]; 55 SNPs in 24 candidate genes): No SNPs were statistically significantly associated
allelic hazard ratio for OS, VEGFR2 rs1870377 18487A>T Q472H ([1]; T allele carriers showing improved OS, range in brackets): 0.47 (0.3-0.73)
allelic hazard ratio for OS, carriage of either IGFR1 minor allele (rs2037448 or rs7181022) vs wild type ([1]; carriers have poorer OS, range in brackets): 5.0 (2.2-10.0)
inhibitor status [2]: inhibitor
substrate status [2]: substrate
GWAS signals (p<5×10-8) with common markers (MAF>5%) [3]: no strong signals
substrate status [4]: (BCRP) lapatinib is substrate
substrate status [5]: (P-GP) lapatinib is substrate
association of VEGFR2 rs1870377 18487A>T with OS [6]: not seen
association of SNPs with progression-free survival (PFS) ([6]; 55 SNPs in 24 candidate genes): No SNPs were statistically significantly associated
allelic hazard ratio for overall survival (OS), VEGFA rs3025039 936C>T ([6]; lapatinib monotherapy, improved OS for T allele carriers, range in brackets): 0.21 (0.08-0.52)
